Like-named read-outs stand apart in the source and are kept apart here.
Columns and labels:
ZR75.1 cells = experiment: Fluorescent drug uptake by FACS in siRNA-transfected cells; type: cell-based, human; details: 16 μM epirubicin, versus lamin knocked-down cells
Method: In vitro apoptosis and cell growth assays. Twenty-four hours after siRNA transfection, the medium was changed and cells were treated with various concentrations of paclitaxel and epirubicin. Proliferation rates were determined with CellTiter-Glo® Luminescent Cell Viability Assay, (Promega) after 48 hours of drug exposure according to the manufacturer's instructions. Chemosensitivity was determined from three separate experiments. Growth curves were generated with GraphPad Prism 4.01 (GraphPad Software, San Diego, Calif.). […] Data were recorded by the FACScan as arbitrary units. The amount of fluorescence per cell (arbitrary fluorescence units) was taken as the measure of drug uptake. […] Fluorescence paclitaxel uptake was also observed using an inverted fluorescent microscope.
Tau protein reduces paclitaxel binding to tubulin and interferes with the paclitaxel induced stabilization in vitro. […] To estimate paclitaxel binding to tubulin in the presence or absence of Tau protein, the uptake of fluorescent paclitaxel in Tau siRNA-treated (Tau knock down) cells and lamin siRNA-treated control cells were measured. Forty-four hours after siRNA transfection, cells were exposed to 1 μM Oregon green-paclitaxel for 20 to 80 min and then analyzed by FACS. The amount of fluorescent paclitaxel in the cells can be assessed by plotting fluorescence intensity in the X-axis and cell count on the Y-axis. […]

[1] = tested on: ZR75.1 breast cancer cells; experiment: ATP cell viability assay (CellTiter-Glo) after siRNA transfection; type: cell-based, human; details: 48 h drug exposure; for Effect of Tau down-regulation on sensitivity to the drug: ZR75.1 cells, Tau siRNA; for IC50: Homo sapiens, ZR-75-1, 48 h, read-out: IC50 concentration of paclitaxel
Description: Small interfering RNA studies. Two siRNA oligonucleotides directed against microtubule associated protein Tau (genbank accession number NM_016835.1) were ordered from Qiagen. Breast cancer cell lines were screened for Tau protein expression by Western blot analysis using a monoclonal anti-Tau antibody (#13-1400: clone T14, Zymed, CA). ZR75.1 cells were selected for siRNA studies and were transfected with a control siRNA (directed against lamin) or 2 distinct anti-Tau siRNA (5′-[…]-3′ (SEQ ID NO:194) and 5′-[…]-3′) (SEQ ID NO:195) constructs. Five hundred nanograms of siRNA was transfected using 1.5 μl RNAiFect (Qiagen) onto 1-3×10^4 cells in 96-well plates or 5 μg of siRNA was transfected using 15 μl RNAiFect (Qiagen) onto 1.5-4×10^5 cells in 6-well plates following the manufactures instructions.
In vitro apoptosis and cell growth assays. Twenty-four hours after siRNA transfection, the medium was changed and cells were treated with various concentrations of paclitaxel and epirubicin. Proliferation rates were determined with CellTiter-Glo® Luminescent Cell Viability Assay, (Promega) after 48 hours of drug exposure according to the manufacturer's instructions. Chemosensitivity was determined from three separate experiments. Growth curves were generated with GraphPad Prism 4.01 (GraphPad Software, San Diego, Calif.). The effect of Tau expression on drug uptake was assayed using a fluorescent-conjugated paclitaxel (Oregon Green 488 paclitaxel, Molecular probes, Eugene, Oreg.) or spontaneously fluorescent epirubicin (Kimichi-Sarfaty et al., 2002; Harris et al., 2003). Forty-eight hours after siRNA transfection, 3×10^5 cells were trypsinized and resuspended in 1 ml of regular medium containing 1 μM of fluorescent paclitaxel or 16 μM of epirubicin and incubated at 37° C. for 20 to 80 min. The pellet was resuspended in 400 μl of phosphate-buffered saline before FACS analysis (Kimichi-Sarfaty et al., 2002) using CellQuest software (BD Biosciences, San Jose, Calif.). Data were recorded by the FACScan as arbitrary units. The amount of fluorescence per cell (arbitrary fluorescence units) was taken as the measure of drug uptake. […] Fluorescence paclitaxel uptake was also observed using an inverted fluorescent microscope.
Down regulation of Tau expression in breast cancer cells increases sensitivity to paclitaxel in vitro. […] The inventors assessed Tau protein expression in breast cancer cell lines with Western blot using an anti-Tau monoclonal antibody that recognizes Tau irrespectively of phosphorylation status. […] Twenty-four hours after siRNA transfection, cells were exposed to various concentrations of paclitaxel or epirubicin and cell viability was assessed after 48 h of drug exposure using an ATP cell viability assay. […]

tubulin = experiment: Competition for fluorescent bodipy-paclitaxel binding to tubulin; set-up: species or system bovine; details: 30 min pre-incubation; Tau 15 μM or unlabelled paclitaxel 20 μM; fluorescent paclitaxel 5 μM
Method: (§1) Tubulin polymerization assays. Bovine brain tubulin (2 mg/ml) polymerization assays were performed in 100-μl volumes at 37° C. using the Tubulin Polymerization Assay Kit (Cytoskeleton, Inc., Denver, Colo.) and following the manufacturer recommendations. Purified Tau protein was purchased from Cytoskeleton (ref #TA01). Fluorescent Bodipy-paclitaxel was purchased from Molecular probes (Bodipy 564/570, Molecular probes, Eugene, Oreg.). OD340 was measured every 30 seconds for 30-60 min. The plots show the change in turbidity after correcting the data for the baseline absorbance.
To examine if paclitaxel binding to tubulin is affected by Tau expression, the inventors used fluorescent bodipy-paclitaxel. When fluorescent paclitaxel binds to microtubules it results in enhanced fluorescence. The inventors used this characteristic to assess the competition between Tau and paclitaxel in vitro. Fluorescent paclitaxel (5 μM) was added to a tubulin solution after 30 minutes pre-incubation with Tau (15 μM) or regular (non-fluorescent) paclitaxel (20 μM), or reaction buffer alone and fluorescence was measured 30 minutes later. […] In the control wells, the addition of fluorescent paclitaxel induced polymerization and after 30 minutes, fluorescence emission was high.

Bovine brain tubulin = experiment: Tubulin polymerization assay (OD340); type: biochemical; details: tubulin 20 μM, 37° C.; 20 μM paclitaxel or 15 μM Tau
Method: as §1
Microtubules are formed in vitro by non-covalent polymerization of tubulin dimers (Desai et al., 1997; Hong et al., 1998). Microtubule associated proteins, GTP and paclitaxel increase microtubule polymerization rates which can be measured by observing an increase in absorbance at 340 nm (Lu and Wood, 1993; Rao et al., 1999). The inventors hypothesized that Tau may reduce pharmacological tubulin polymerization induced by paclitaxel. The inventors performed a kinetic spectrophotometric tubulin polymerization assay in which Tau and paclitaxel were added together to the tubulin mixture. […] Next, tubulin was pre-incubated with Tau before adding paclitaxel which approximates a more physiological sequence of drug exposure. […]

IC50 ([1]; ZR75.1 cells with Tau siRNA knock down) [µM]	IC50 ([1]; ZR75.1 control cells (lamin siRNA or no siRNA)) [µM]	Competition with fluorescent paclitaxel for binding to microtubules (tubulin)	Structure (SMILES)	Fluorescence uptake in Tau knocked-down cells (ZR75.1 cells)	Effect of Tau down-regulation on sensitivity to the drug [1]	Tubulin polymerization (Bovine brain tubulin)
			COc1cccc2c1C(=O)c1c(O)c3c(c(O)c1C2=O)C[C@@](O)(C(=O)CO)C[C@@H]3O[C@H]1C[C@H](N)[C@@H](O)[C@H](C)O1 [epirubicin]	slightly decreased	did not result in increased sensitivity	
0.1	> 10	very high	CC(=O)O[C@H]1C(=O)[C@@]2(C)[C@H]([C@H](OC(=O)c3ccccc3)[C@]3(O)C[C@H](OC(=O)[C@H](O)[C@@H](NC(=O)c4ccccc4)c4ccccc4)C(C)=C1C3(C)C)[C@]1(OC(C)=O)CO[C@@H]1C[C@@H]2O [paclitaxel]		significantly increased the sensitivity	induced tubulin polymerization
